Assay results reported in ChEMBL document CHEMBL4406887, “Design and synthesis of biaryloxazolidinone derivatives containing amide or acrylamide moiety as novel antibacterial agents against Gram-positive bacteria” (Bioorg Med Chem Lett, 2019).
Converted amounts (≈) assume the structure as drawn.

Legend:
Staphylococcus aureus [1] = experiment: Antibacterial activity against methicillin-sensitive Staphylococcus aureus CLSI-based double dilution method; assay type: functional
Staphylococcus aureus [2] = experiment: Antibacterial activity against Staphylococcus aureus ATCC 29213 CLSI-based double dilution method; assay type: functional
[3] = Aqueous solubility of compound; assay type: physicochemical; details: water
[4] = Stability in artificial gastric acid at 1 mg/ml assessed as residual rate after 30 mins by HPLC analysis relative to control; assay type: ADME; details: read-out: Stability
[5] = Stability in artificial gastric acid at 1 mg/ml assessed as residual rate after 4 hrs by HPLC analysis relative to control; assay type: ADME; details: read-out: Stability
[6] = Stability in artificial gastric acid at 1 mg/ml assessed as residual rate after 1 hr by HPLC analysis relative to control; assay type: ADME; details: read-out: Stability
Staphylococcus aureus [7] = experiment: Antibacterial activity against methicillin-resistant Staphylococcus aureus CLSI-based double dilution method; assay type: functional
[8] = Stability in artificial gastric acid at 1 mg/ml assessed as residual rate measured immediately by HPLC analysis relative to control; assay type: ADME; details: read-out: Stability
[9] = Stability in artificial gastric acid at 1 mg/ml assessed as residual rate after 3.5 hrs by HPLC analysis relative to control; assay type: ADME; details: read-out: Stability
Enterococcus faecium = experiment: Antibacterial activity against vancomycin-resistant Enterococcus faecium CLSI-based double dilution method; assay type: functional
[10] = Stability in artificial gastric acid at 1 mg/ml assessed as residual rate after 2 hrs by HPLC analysis relative to control; assay type: ADME; details: read-out: Stability
[11] = Stability in artificial gastric acid at 1 mg/ml assessed as residual rate after 3 hrs by HPLC analysis relative to control; assay type: ADME; details: read-out: Stability
Enterococcus faecalis = experiment: Antibacterial activity against linezolid-resistant Enterococcus faecalis CLSI-based double dilution method; assay type: functional
[12] = Stability in artificial gastric acid at 1 mg/ml assessed as residual rate after 1.5 hrs by HPLC analysis relative to control; assay type: ADME; details: read-out: Stability
[13] = Stability in artificial gastric acid at 1 mg/ml assessed as residual rate after 2.5 hrs by HPLC analysis relative to control; assay type: ADME; details: read-out: Stability

Row | SMILES | MIC (Staphylococcus aureus [1]) | MIC (Staphylococcus aureus [2]) | solubility [3] | remaining at 0.5 h, 1 mg/ml [4] | remaining at 4 h, 1 mg/ml [5] | remaining at 1 h, 1 mg/ml [6] | MIC (Staphylococcus aureus [7]) | remaining at 0 h, 1 mg/ml [8] | remaining at 3.5 h, 1 mg/ml [9] | MIC (Enterococcus faecium) | remaining at 2 h, 1 mg/ml [10] | remaining at 3 h, 1 mg/ml [11] | MIC (Enterococcus faecalis) | remaining at 1.5 h, 1 mg/ml [12] | remaining at 2.5 h, 1 mg/ml [13]
1 | CC(=O)NC[C@H]1CN(c2ccc(-c3ccc(/C=N/N4CCN(C)CC4)cc3)c(F)c2)C(=O)O1 | 0.0675 µg/mL (≈ 0.149 µM) | 0.0675 µg/mL (≈ 0.149 µM) | 71 µg/mL (≈ 157 µM) | 97.5% | 0% | 40.7% | 0.0675 µg/mL (≈ 0.149 µM) | 100% | 0% | 0.0675 µg/mL (≈ 0.149 µM) | 16.1% | 0% | 0.0675 µg/mL (≈ 0.149 µM) | 26.3% | 0%
2 | CC(=O)NC[C@H]1CN(c2ccc(-c3ccc(/C=C/C(=O)N4CCNCC4)cc3)c(F)c2)C(=O)O1 | 0.5 µg/mL (≈ 1.07 µM) | 0.5 µg/mL (≈ 1.07 µM) | 115 µg/mL (≈ 247 µM) | 94.9% | 88.7% | 95.2% | 0.5 µg/mL (≈ 1.07 µM) | 100% | 89.7% | 0.5 µg/mL (≈ 1.07 µM) | 91.7% | 90.9% | 0.25 µg/mL (≈ 0.536 µM) | 94.9% | 91.5%
3 | CC(=O)NC[C@H]1CN(c2ccc(-c3ccc(C(=O)N4CCSCC4)cc3)c(F)c2)C(=O)O1 | 2 µg/mL (≈ 4.37 µM) | 1 µg/mL (≈ 2.19 µM) | – | – | – | – | 2 µg/mL (≈ 4.37 µM) | – | – | 2 µg/mL (≈ 4.37 µM) | – | – | 4 µg/mL (≈ 8.74 µM) | – | –
4 | CC(=O)NC[C@H]1CN(c2ccc(-c3ccc(/C=C/C(=O)N4CCSCC4)cc3)c(F)c2)C(=O)O1 | 1 µg/mL (≈ 2.07 µM) | 1 µg/mL (≈ 2.07 µM) | – | – | – | – | 2 µg/mL (≈ 4.14 µM) | – | – | 2 µg/mL (≈ 4.14 µM) | – | – | 2 µg/mL (≈ 4.14 µM) | – | –
5 | CC(=O)NC[C@H]1CN(c2ccc(-c3ccc(/C=C/C(=O)NC4CCCC4)cc3)c(F)c2)C(=O)O1 | 1 µg/mL (≈ 2.15 µM) | 1 µg/mL (≈ 2.15 µM) | – | – | – | – | 1 µg/mL (≈ 2.15 µM) | – | – | 1 µg/mL (≈ 2.15 µM) | – | – | 1 µg/mL (≈ 2.15 µM) | – | –
6 | CC(=O)NC[C@H]1CN(c2ccc(-c3ccc(/C=C/C(=O)N4CCCCC4)cc3)c(F)c2)C(=O)O1 | 1 µg/mL (≈ 2.15 µM) | 1 µg/mL (≈ 2.15 µM) | – | – | – | – | 1 µg/mL (≈ 2.15 µM) | – | – | 1 µg/mL (≈ 2.15 µM) | – | – | 1 µg/mL (≈ 2.15 µM) | – | –
7 | CC(=O)NC[C@H]1CN(c2ccc(-c3ccc(C(=O)N4CCNCC4)cc3)c(F)c2)C(=O)O1 | 1 µg/mL (≈ 2.27 µM) | 1 µg/mL (≈ 2.27 µM) | – | – | – | – | 1 µg/mL (≈ 2.27 µM) | – | – | 1 µg/mL (≈ 2.27 µM) | – | – | 1 µg/mL (≈ 2.27 µM) | – | –
8 | CC(=O)NC[C@H]1CN(c2ccc(-c3ccc(C(=O)N4CCCCC4)cc3)c(F)c2)C(=O)O1 | 1 µg/mL (≈ 2.28 µM) | 1 µg/mL (≈ 2.28 µM) | – | – | – | – | 1 µg/mL (≈ 2.28 µM) | – | – | 1 µg/mL (≈ 2.28 µM) | – | – | 1 µg/mL (≈ 2.28 µM) | – | –
9 | CC(=O)NC[C@H]1CN(c2ccc(-c3ccc(/C=C/C(=O)N4CCCC4)cc3)c(F)c2)C(=O)O1 | 1 µg/mL (≈ 2.21 µM) | 1 µg/mL (≈ 2.21 µM) | – | – | – | – | 1 µg/mL (≈ 2.21 µM) | – | – | 1 µg/mL (≈ 2.21 µM) | – | – | 1 µg/mL (≈ 2.21 µM) | – | –
10 | CC(=O)NC[C@H]1CN(c2ccc(-c3ccc(/C=C/C(=O)N4CCC(C)CC4)cc3)c(F)c2)C(=O)O1 | 1 µg/mL (≈ 2.09 µM) | 1 µg/mL (≈ 2.09 µM) | – | – | – | – | 1 µg/mL (≈ 2.09 µM) | – | – | 1 µg/mL (≈ 2.09 µM) | – | – | 1 µg/mL (≈ 2.09 µM) | – | –
11 | CC(=O)NC[C@H]1CN(c2ccc(-c3ccc(C(=O)NC4CC4)cc3)c(F)c2)C(=O)O1 | 1 µg/mL (≈ 2.43 µM) | 1 µg/mL (≈ 2.43 µM) | – | – | – | – | 1 µg/mL (≈ 2.43 µM) | – | – | 1 µg/mL (≈ 2.43 µM) | – | – | 1 µg/mL (≈ 2.43 µM) | – | –
12 | CC(=O)NC[C@H]1CN(c2ccc(-c3ccc(C(=O)N4CCOCC4)cc3)c(F)c2)C(=O)O1 | 2 µg/mL (≈ 4.53 µM) | 2 µg/mL (≈ 4.53 µM) | – | – | – | – | 2 µg/mL (≈ 4.53 µM) | – | – | 2 µg/mL (≈ 4.53 µM) | – | – | 2 µg/mL (≈ 4.53 µM) | – | –
13 | CC(=O)NC[C@H]1CN(c2ccc(-c3ccc(/C=C/C(=O)N4CCOCC4)cc3)c(F)c2)C(=O)O1 | 2 µg/mL (≈ 4.28 µM) | 2 µg/mL (≈ 4.28 µM) | – | – | – | – | 2 µg/mL (≈ 4.28 µM) | – | – | 2 µg/mL (≈ 4.28 µM) | – | – | 4 µg/mL (≈ 8.56 µM) | – | –
14 | CC(=O)NC[C@H]1CN(c2ccc(-c3ccc(C(=O)N4CCCC4)cc3)c(F)c2)C(=O)O1 | 1 µg/mL (≈ 2.35 µM) | 1 µg/mL (≈ 2.35 µM) | – | – | – | – | 1 µg/mL (≈ 2.35 µM) | – | – | 2 µg/mL (≈ 4.7 µM) | – | – | 2 µg/mL (≈ 4.7 µM) | – | –
15 | CC(=O)NC[C@H]1CN(c2ccc(-c3ccc(/C=C/C(=O)NC4CC4)cc3)c(F)c2)C(=O)O1 | 1 µg/mL (≈ 2.29 µM) | 1 µg/mL (≈ 2.29 µM) | – | – | – | – | 1 µg/mL (≈ 2.29 µM) | – | – | 1 µg/mL (≈ 2.29 µM) | – | – | 1 µg/mL (≈ 2.29 µM) | – | –
16 | CC(=O)NC[C@H]1CN(c2ccc(-c3ccc(C(=O)NC4CCCC4)cc3)c(F)c2)C(=O)O1 | 1 µg/mL (≈ 2.28 µM) | 1 µg/mL (≈ 2.28 µM) | – | – | – | – | 1 µg/mL (≈ 2.28 µM) | – | – | 1 µg/mL (≈ 2.28 µM) | – | – | 1 µg/mL (≈ 2.28 µM) | – | –
17 | CC(=O)NC[C@H]1CN(c2ccc(N3CCOCC3)c(F)c2)C(=O)O1 [LINEZOLID] | 1 µg/mL (≈ 2.96 µM) | 1 µg/mL (≈ 2.96 µM) | – | – | – | – | 1 µg/mL (≈ 2.96 µM) | – | – | 2 µg/mL (≈ 5.93 µM) | – | – | > 16 µg/mL | – | –
18 | CC(=O)NC[C@H]1CN(c2ccc(-c3ccc(CNCc4cnn[nH]4)cc3)c(F)c2)C(=O)O1 [RADEZOLID] | 0.5 µg/mL (≈ 1.14 µM) | 0.5 µg/mL (≈ 1.14 µM) | – | – | – | – | 0.5 µg/mL (≈ 1.14 µM) | – | – | 0.5 µg/mL (≈ 1.14 µM) | – | – | 0.5 µg/mL (≈ 1.14 µM) | – | –
